Test results from ChEMBL document CHEMBL5104193, “Hypoxia-Activated Prodrugs with Dual COX-2/CA Inhibitory Effects on Attenuating Cardiac Inflammation under Hypoxia” (J Med Chem, 2022).
The source made the active and inactive calls. The calls are words filed in the database; no cut-off is given here.

Legend:
H9c2 [1] = experiment: Reversal of LPS/hypoxia induced mitochondrial membrane potential loss in rat H9c2 cells in presence of 2-(4-(5-oxo-5-((5-sulfamoyl-1,3,4-thiadiazol-2-yl)amino)pentyl)-1H-1,2,3-triazol-1-yl)acetic acid by JC-1 dye based flow cytometry analysis; format: functional, cell-based
H9c2 [2] = experiment: Anti-inflammatory activity in LPS/hypoxia induced rat H9c2 cells assessed as reduction of TNF-alpha protein expression at 10 uM in presence of 2-(4-(5-oxo-5-((5-sulfamoyl-1,3,4-thiadiazol-2-yl)amino)pentyl)-1H-1,2,3-triazol-1-yl)acetic acid by Western blot analysis; format: functional, cell-based
H9c2 [3] = experiment: Anti-inflammatory activity in LPS/hypoxia induced rat H9c2 cells assessed as reduction of IL-1beta protein expression at 10 uM in presence of 2-(4-(5-oxo-5-((5-sulfamoyl-1,3,4-thiadiazol-2-yl)amino)pentyl)-1H-1,2,3-triazol-1-yl)acetic acid by Western blot analysis; format: functional, cell-based
Rattus norvegicus = experiment: Antiinflammatory activity in LPS/talc powder induced pericarditic Wistar rat assessed as increase in cTNI level in serum at 20 mg/kg, ip pretreated for 2 hrs followed by LPS/tal powder stimulation measured after 48 hrs in presence of 2-(4-(5-oxo-5-((5-sulfamoyl-1,3,4-thiadiazol-2-yl)amino)pentyl)-1H-1,2,3-triazol-1-yl)acetic acid (reference value: 0.167+/-0.025 ng/ml); format: functional; settings: time 50 hrs
H9c2 [4] = experiment: Protection against LPS/hypoxia induced apoptosis in rat H9c2 cells assessed as reduction in green fluorescence in presence of 2-(4-(5-oxo-5-((5-sulfamoyl-1,3,4-thiadiazol-2-yl)amino)pentyl)-1H-1,2,3-triazol-1-yl)acetic acid by confocal microscopy analysis; format: functional, cell-based
H9c2 [5] = experiment: Reversal of LPS/hypoxia induced mitochondrial membrane potential loss in rat H9c2 cells assessed as increase in JC-1 polymer morphology in presence of 2-(4-(5-oxo-5-((5-sulfamoyl-1,3,4-thiadiazol-2-yl)amino)pentyl)-1H-1,2,3-triazol-1-yl)acetic acid by JC-1 dye based flow cytometry analysis; format: functional, cell-based; settings: time 20.0 min
H9c2 [6] = experiment: Antiinflammatory activity in LPS/hypoxia induced CA9 knockdown rat H9c2 cells assessed as decrease in IL-6 protein level at 10 uM by Western blot analysis; format: functional, cell-based
H9c2 [7] = experiment: Protection against LPS/hypoxia induced cell injury in rat H9c2 cells assessed as recovery of cell viability in presence of 2-(4-(5-oxo-5-((5-sulfamoyl-1,3,4-thiadiazol-2-yl)amino)pentyl)-1H-1,2,3-triazol-1-yl)acetic acid by CCK-8 assay (reference value: 69.0%); format: functional
[8] = Toxicity in Wistar rat assessed as change in BUN level in presence of 2-(4-(5-oxo-5-((5-sulfamoyl-1,3,4-thiadiazol-2-yl)amino)pentyl)-1H-1,2,3-triazol-1-yl)acetic acid; settings: in vivo
H9c2 [9] = experiment: Anti-inflammatory activity in LPS/hypoxia induced rat H9c2 cells assessed as reduction of IL-6 protein expression at 10 uM by Western blot analysis; format: functional, cell-based

Question: Which Activity (H9c2 [1]) does the source give for `COc1ccc2c(c1)c(CC(=O)O)c(C)n2C(=O)c1ccc(Cl)cc1` [INDOMETHACIN] here?
Answer: Its Activity is “Active”.

Question: What about the Activity (H9c2 [2]) of the same compound?
Answer: Its Activity is “Active”.

Question: What about the Activity (H9c2 [3]) of the same compound?
Answer: Its Activity is “Active”.

Question: And the Activity (Rattus norvegicus)?
Answer: Its Activity is 0.121 ng/mL.

Question: And the Activity (H9c2 [4])?
Answer: The Activity was “Active”.

Question: What about the Activity (H9c2 [5]) of the same compound?
Answer: Its Activity is “Active”.

Question: What about the Activity (H9c2 [6]) of the same compound?
Answer: The Activity was “Active”.

Question: What about the Activity (H9c2 [7]) of the same compound?
Answer: The Activity was 91.8%.

Question: And the Activity [8]?
Answer: The Activity was “Toxic”.

Question: What about the Activity (H9c2 [9]) of the same compound?
Answer: The Activity was “Active”.
